# Measured values published in publication PMC9023165, “Antioxidant, Enzyme Inhibitory, and Molecular Docking Approaches to the Antidiabetic Potentials of Bioactive Compounds from Persicaria hydropiper L” (Evidence-based Complementary and Alternative Medicine : eCAM, 2022).
# Read-outs that look alike come from different tables or passages of the source.
# Columns and labels:
# [1] = biological target: α-glucosidase enzyme (Saccharomyces cerevisiae, UniProt P53341); experiment: α-glucosidase inhibition assay; format: biochemical
# Experimental: For α-glucosidase inhibition assay, 50 µL solution containing 0.5 U·mL^−1 was added to 50 µL phosphate buffer (6.8 pH) and was added to various concentrations of test samples. The resultant mixture was properly mixed and stored at 37°C for fifteen min. After incubation, 100 µL (3 mM) pNPG solution was added to it. […] Absorption was measured at 405 nm using 96-well microplate reader. Absorption of mixture without addition of test samples was used as control and without substrate was used as blank. Percent inhibitions were calculated using the formula(3) % Inhibition=1−absorbance of sample−absorbance of blank/absorbance of control×100.
# [2] = biological target: T1, α-amylase enzyme (Sus scrofa, UniProt P00690); experiment: α-amylase inhibition assay; format: biochemical; settings: Mean ± SEM
# T1 sequence (P00690 16-511): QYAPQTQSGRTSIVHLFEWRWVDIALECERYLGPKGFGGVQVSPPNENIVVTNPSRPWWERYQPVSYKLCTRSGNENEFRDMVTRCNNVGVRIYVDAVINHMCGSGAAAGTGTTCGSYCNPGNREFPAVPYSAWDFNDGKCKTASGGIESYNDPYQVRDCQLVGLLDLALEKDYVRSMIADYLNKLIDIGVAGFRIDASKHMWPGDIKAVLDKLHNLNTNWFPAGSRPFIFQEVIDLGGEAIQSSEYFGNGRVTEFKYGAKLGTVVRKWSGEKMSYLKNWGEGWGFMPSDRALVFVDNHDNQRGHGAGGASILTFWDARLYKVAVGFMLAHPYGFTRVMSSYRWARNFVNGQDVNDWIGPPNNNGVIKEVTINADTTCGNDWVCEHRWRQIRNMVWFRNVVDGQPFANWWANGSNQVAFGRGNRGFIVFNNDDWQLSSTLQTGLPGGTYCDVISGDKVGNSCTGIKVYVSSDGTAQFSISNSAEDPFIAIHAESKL
# Experimental: Using this assay, a previously reported protocol was followed. […] Subsequently, 100 µL of 0.5 mg·mL^−1α-amylase solution was added to the mixture and again incubated for 10 min at 25°C. Reaction was stopped via the addition of 200 µL of dinitrosalicylic acid was added and incubated for an additional 5 min in boiling water bath and allowed to cool again. Finally, 50 µL solutions was transferred to 96-well microplate reader and further diluted to 200 µL via the addition of distilled water. Absorbencies were recorded at 540 nm and percent inhibitions were calculated using the equation(4) % Inhibition=1−Δ A Samples/Δ A Control×100.
# [3] = DPPH antiradicals assay
# Experimental: DPPH antiradicals study was conducted in accordance with our previously published protocol. Initially, 0.1% methanolic-DPPH solution was made and its 100 µL was mixed with same volume (100 µL) of test samples in 96-well plates, followed by incubation for about thirty min in a dark place 25 ± 3°C. […] Percent scavenging was estimated as follows:(1) % scavenging=A0−A1/A0×100.
# [4] = ABTS antiradicals assay
# Experimental: ABTS antiradicals' study was performed following our earlier reported protocol. For preparation of ABTS solution, 192 mg of ABTS salt was mixed in distilled water with subsequent transfer to fifty-milliliter flask and volume adjustments. Thereafter, 1 mL of the previous solution was added to 17 µL of 140 mM potassium persulphate and the mixture was left in the dark for 24 hours. Subsequently, 1 mL of the reaction mixture was diluted to 50 mL using methanol to obtain the final ABTS dilution used in the assay. Consequently, 190-microliter ABTS solution was added to 10 µL sample solutions and in 96-well plates and were incubated for 2 hrs in dark place at room temperature. After the incubation, decline in color intensity of ABTS was measured at 734 nm via microplate reader. […] Percent ABTS scavenging was determined using equation:(2) %ABTS scavenging=Control absorbance−Sample absorbance/Control absorbance×100.
# Sequence of α-glucosidase enzyme (P53341 whole entry): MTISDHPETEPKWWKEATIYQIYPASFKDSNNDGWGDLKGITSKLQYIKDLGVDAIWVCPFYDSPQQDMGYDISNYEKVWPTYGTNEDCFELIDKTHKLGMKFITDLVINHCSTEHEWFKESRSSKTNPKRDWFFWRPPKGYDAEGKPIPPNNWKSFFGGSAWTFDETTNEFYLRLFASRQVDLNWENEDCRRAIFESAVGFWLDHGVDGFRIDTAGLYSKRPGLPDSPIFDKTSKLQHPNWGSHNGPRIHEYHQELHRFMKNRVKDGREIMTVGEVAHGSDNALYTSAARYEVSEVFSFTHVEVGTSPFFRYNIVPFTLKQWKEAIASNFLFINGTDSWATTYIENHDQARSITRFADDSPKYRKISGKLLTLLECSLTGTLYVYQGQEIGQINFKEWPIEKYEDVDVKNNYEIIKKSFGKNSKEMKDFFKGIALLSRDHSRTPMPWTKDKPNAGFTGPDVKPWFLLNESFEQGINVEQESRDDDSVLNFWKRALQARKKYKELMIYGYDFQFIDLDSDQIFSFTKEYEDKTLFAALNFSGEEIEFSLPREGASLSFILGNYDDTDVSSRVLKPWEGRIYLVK
Structure (SMILES),IC50 DPPH scavenging [3],IC50 against ABTS radicals [4],% scavenging effect against DPPH radicals ([3]; 31.25 µg·mL^−1),% scavenging effect against DPPH radicals ([3]; 62.50 µg·mL^−1),% scavenging effect against DPPH radicals ([3]; 125 µg·mL^−1),% scavenging effect against DPPH radicals ([3]; 250 µg·mL^−1),% scavenging effect against DPPH radicals ([3]; 500 µg·mL^−1),% scavenging effect against DPPH radicals ([3]; 1000 µg·mL^−1),% inhibition against ABTS radicals ([4]; 1000 µg·mL^−1),other results
C[C@H]1O[C@H](O[C@H]2[C@H](O)[C@@H](O)[C@@H](O[C@H]3[C@H](O)[C@@H](O)C(O)O[C@@H]3CO)O[C@@H]2CO)[C@H](O)[C@@H](O)[C@@H]1N[C@H]1C=C(CO)[C@@H](O)[C@H](O)[C@H]1O (stereo partly drawn) [Acarbose],,,,,,,,,,α-Glucosidase inhibition assay % enzyme inhibition [1]: 89.42 ± 0.55 77.52 ± 0.62 71. 36 ± 0.49 62.39 ± 0.49 55.47 ± 0.52%; α-Amylase Inhibition assay % enzyme inhibition ([2]; 62.50 µg·mL^−1): 59.36 ± 0.57%; α-Amylase Inhibition assay % enzyme inhibition ([2]; 125 µg·mL^−1): 65.48 ± 0.74%; α-Amylase Inhibition assay % enzyme inhibition ([2]; 250 µg·mL^−1): 73.62 ± 0.40%; α-Amylase Inhibition assay % enzyme inhibition ([2]; 500 µg·mL^−1): 78.60 ± 0.46%; α-Amylase Inhibition assay % enzyme inhibition ([2]; 1000 µg·mL^−1): 85.72 ± 0.66%
"CCC(/C=C/C(C)C1CCC2C3CC=C4CC(O)CCC4(C)C3CCC12C)C(C)C (stereo not drawn) [Ph-2, (E)-17-(5-ethyl-6-methylhept-3-en-2-yl)-10,13-dimethyl-2,3,4,7,8,9,10,11,12,13,14,15,16,17-tetradecahydro-1H-cyclopenta[a]phenanthren-3-ol]",200 µg/mL,160 µg/mL,11.83%,21.33%,34.16%,59.66%,68%,79.33%,80.63%,% inhibition against ABTS radicals ([4]; 31.25 µg·mL^−1): 17.44%; % inhibition against ABTS radicals ([4]; 62.5 µg·mL^−1): 27.88%; % inhibition against ABTS radicals ([4]; 125 µg·mL^−1): 42.89%; % inhibition against ABTS radicals ([4]; 250 µg·mL^−1): 60.56%; % inhibition against ABTS radicals ([4]; 500 µg·mL^−1): 72.68%
"CC(=O)OC1COC(=O)C1C (stereo not drawn) [Ph-3, 4-methyl-5-oxo-tetrahydrofuran-3-yl acetate]",550 µg/mL,320 µg/mL,9.2%,18.5%,29.66%,33.33%,42%,56%,67.16%,

# Second part, led by results:
IC50 DPPH scavenging [3],IC50 against ABTS radicals [4],Structure (SMILES),% scavenging effect against DPPH radicals ([3]; 31.25 µg·mL^−1),% scavenging effect against DPPH radicals ([3]; 62.50 µg·mL^−1),% scavenging effect against DPPH radicals ([3]; 125 µg·mL^−1),% scavenging effect against DPPH radicals ([3]; 250 µg·mL^−1),% scavenging effect against DPPH radicals ([3]; 500 µg·mL^−1),% scavenging effect against DPPH radicals ([3]; 1000 µg·mL^−1),% inhibition against ABTS radicals ([4]; 1000 µg·mL^−1),other results
650 µg/mL,610 µg/mL,"COC(=O)c1ccc(O)c(OC)c1 [Ph-4, methyl 4-hydroxy-3-methoxybenzoate]",7.6%,12.06%,19.85%,27.48%,48.73%,60.26%,53.66%,
390 µg/mL,350 µg/mL,"CCOc1cc(C(C)=O)c2cc(OC)ccc2c1 [Ph-5, 1-(3-ethoxy-7-methoxynaphthalen-1-yl)ethanone]",,,,,,58.33%,69.16%,IC50 against ABTS radicals ([4]; in Figure 3): 390 µg/mL
910 µg/mL,550 µg/mL,"COc1cc(/C=C/c2ccccc2)oc(=O)c1 [Ph-6, (E)-4-methoxy-6-styryl-2H-pyran-2-one]",,,,,,44%,61%,
40 µg/mL,,"O=C1O[C@H]([C@@H](O)CO)C(O)=C1O [ascorbic acid, reference compound]",45%,56.83%,62.33%,72.85%,83.33%,91.80%,,
